Reference: BindingDB's records for doi:10.1021/jm400568p (University of Manchester, 2013)

Molecular target: DNA-(apurinic or apyrimidinic site) endonuclease (Homo sapiens, UniProt P27695)
Assay: Inhibition of APE-1 (unknown origin) using double-stranded AP-site containing DNA as substrate after 30 mins by fluorescence assay

DNA-(apurinic or apyrimidinic site) endonuclease, sequence (P27695 whole entry): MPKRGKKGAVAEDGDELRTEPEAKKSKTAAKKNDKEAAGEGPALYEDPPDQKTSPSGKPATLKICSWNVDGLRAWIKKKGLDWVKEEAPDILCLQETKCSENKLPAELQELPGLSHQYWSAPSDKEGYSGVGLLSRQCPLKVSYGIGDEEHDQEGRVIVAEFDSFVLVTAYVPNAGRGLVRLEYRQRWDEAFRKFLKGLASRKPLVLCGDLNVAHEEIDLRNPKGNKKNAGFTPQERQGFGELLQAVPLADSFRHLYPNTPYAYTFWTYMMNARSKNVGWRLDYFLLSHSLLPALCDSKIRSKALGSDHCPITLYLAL

Compound `Cn1nc(-c2ccccc2)c(O)c2c(=O)[nH]c(=N)nc1-2` has an IC50 of over 200 µM.
